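Assay format: 96-well plates, 48-hour exposure. GI50: concentration for 50% inhibition of growth. Definition used: TGI = concentration required for complete inhibition of growth.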
Assays:
Experiment in all cases: DTP human tumour cell line panel, 48 h
SF-268 CNS = system: SF-268 CNS
DU-145 prostate = system: DU-145 prostate
HT29 colon = system: HT29 colon
SNB-19 CNS = system: SNB-19 CNS
RPMI-8226 leukemia = system: RPMI-8226 leukemia
SK-MEL-2 melanoma = system: SK-MEL-2 melanoma
OVCAR-8 ovarian = system: OVCAR-8 ovarian
NCI-H522 lung = system: NCI-H522 lung

`CN(C)CCCn1c2c(c3ccc([N+](=O)[O-])cc3c1=O)C(=O)c1ccccc1-2` was tested, and the GI50 (SF-268 CNS) was 9.53 µM, the TGI (SF-268 CNS) was over 100 µM and the GI50 (DU-145 prostate) was 5.61 µM. The TGI (DU-145 prostate) was 29.8 µM, the GI50 (HT29 colon) was 3.76 µM and the TGI (HT29 colon) was 21.3 µM. The GI50 (SNB-19 CNS) was 19.1 µM, the TGI (SNB-19 CNS) was over 100 µM and the GI50 (RPMI-8226 leukemia) was 3.46 µM. It also gave a TGI (RPMI-8226 leukemia) of 19.3 µM, a GI50 (SK-MEL-2 melanoma) of over 100 µM and a TGI (SK-MEL-2 melanoma) of over 100 µM. For the same compound, the GI50 (OVCAR-8 ovarian) was 17 µM, the TGI (OVCAR-8 ovarian) was 49.4 µM and the GI50 (NCI-H522 lung) was 4.2 µM. For the same compound, the TGI (NCI-H522 lung) was over 100 µM.

`Nc1nc(N)c2nn(-c3ccc(C(=O)O)cc3)nc2n1` gave a TGI (SF-268 CNS) of over 100 µM, a TGI (DU-145 prostate) of over 100 µM and a TGI (HT29 colon) of over 100 µM. It also gave a TGI (SNB-19 CNS) of over 100 µM, a TGI (RPMI-8226 leukemia) of over 100 µM and a TGI (SK-MEL-2 melanoma) of over 100 µM. It also gave a TGI (OVCAR-8 ovarian) of over 100 µM and a TGI (NCI-H522 lung) of over 100 µM.

In the case of `COc1ccc(C(=O)CC(Cl)=C(Cl)Cl)cc1`, the GI50 (SF-268 CNS) was 38.2 µM, the TGI (SF-268 CNS) was over 100 µM and the GI50 (DU-145 prostate) was 31.5 µM. It also gave a TGI (DU-145 prostate) of over 100 µM, a GI50 (HT29 colon) of 22 µM and a TGI (HT29 colon) of 83.5 µM. It also gave a GI50 (SNB-19 CNS) of 32.4 µM, a TGI (SNB-19 CNS) of over 100 µM and a GI50 (RPMI-8226 leukemia) of 23.5 µM. The TGI (RPMI-8226 leukemia) was 68.5 µM, the GI50 (SK-MEL-2 melanoma) was 44.4 µM and the TGI (SK-MEL-2 melanoma) was over 100 µM. For the same compound, the GI50 (OVCAR-8 ovarian) was 33.2 µM, the TGI (OVCAR-8 ovarian) was over 100 µM and the GI50 (NCI-H522 lung) was 34.3 µM. For the same compound, the TGI (NCI-H522 lung) was 81.5 µM.

For `CCCCCCCCCCCCOC1C(C(COC2OC(C(O)CO)C3OC(C)(C)OC23)OC(=O)Nc2ccc([N+](=O)[O-])cc2)OC2OC(C)(C)OC21` (centres undefined), the GI50 (SF-268 CNS) was 7.34 µM, the TGI (SF-268 CNS) was 22.1 µM and the GI50 (DU-145 prostate) was 2.52 µM. For the same compound, the TGI (DU-145 prostate) was 7.17 µM, the GI50 (HT29 colon) was 2.57 µM and the TGI (HT29 colon) was 7.94 µM. The GI50 (SNB-19 CNS) was 9.43 µM, the TGI (SNB-19 CNS) was 21.8 µM and the GI50 (RPMI-8226 leukemia) was 2.7 µM. The TGI (RPMI-8226 leukemia) was 7.2 µM, the GI50 (SK-MEL-2 melanoma) was 2.09 µM and the TGI (SK-MEL-2 melanoma) was 5.09 µM. For the same compound, the GI50 (OVCAR-8 ovarian) was 3.59 µM, the TGI (OVCAR-8 ovarian) was 14.5 µM and the GI50 (NCI-H522 lung) was 1.92 µM. It also gave a TGI (NCI-H522 lung) of 3.9 µM.

`C=C1C(=O)O[C@H]2[C@H]1CC/C(Cn1cc(CNC(=O)c3cc4ccccc4[nH]3)nn1)=C\CC[C@@]1(C)O[C@@H]21` was tested, and the GI50 (SF-268 CNS) was 7.26 µM, the TGI (SF-268 CNS) was 22.5 µM and the GI50 (DU-145 prostate) was 4.07 µM. The TGI (DU-145 prostate) was 15.1 µM, the GI50 (HT29 colon) was 2.85 µM and the TGI (HT29 colon) was 10.1 µM. The GI50 (SNB-19 CNS) was 7.44 µM, the TGI (SNB-19 CNS) was 20.4 µM and the GI50 (RPMI-8226 leukemia) was 3.37 µM. For the same compound, the TGI (RPMI-8226 leukemia) was 9.34 µM, the GI50 (SK-MEL-2 melanoma) was 6.43 µM and the TGI (SK-MEL-2 melanoma) was 23 µM. The GI50 (OVCAR-8 ovarian) was 4.69 µM, the TGI (OVCAR-8 ovarian) was 17.2 µM and the GI50 (NCI-H522 lung) was 0.921 µM. For the same compound, the TGI (NCI-H522 lung) was 2.84 µM.

Compound `COc1cc2c(cc1Nc1nc(Nc3ccsc3C(N)=O)c3cc[nH]c3n1)N(C(=O)CN(C)C)CCC2` has a GI50 (SF-268 CNS) of 1.15 µM, a TGI (SF-268 CNS) of 10.6 µM and a GI50 (DU-145 prostate) of 0.481 µM. The TGI (DU-145 prostate) was 1.64 µM, the GI50 (HT29 colon) was under 0.0025 µM and the TGI (HT29 colon) was 0.681 µM. It also gave a GI50 (SNB-19 CNS) of 2.58 µM, a TGI (SNB-19 CNS) of over 25 µM and a GI50 (RPMI-8226 leukemia) of 1.24 µM. It also gave a TGI (RPMI-8226 leukemia) of 6.56 µM, a GI50 (SK-MEL-2 melanoma) of 0.726 µM and a TGI (SK-MEL-2 melanoma) of 4.58 µM. The GI50 (OVCAR-8 ovarian) was 0.842 µM, the TGI (OVCAR-8 ovarian) was over 11.2 µM and the GI50 (NCI-H522 lung) was 0.507 µM. The TGI (NCI-H522 lung) was 2.19 µM.

Compound `CCCCCCn1c(=N)n(CC(O)COc2cccc(C)c2)c2ccccc21` (centres undefined) has a GI50 (SF-268 CNS) of 3.9 µM, a TGI (SF-268 CNS) of 13.9 µM and a GI50 (DU-145 prostate) of 3.67 µM. It also gave a TGI (DU-145 prostate) of 12.1 µM, a GI50 (HT29 colon) of 1.73 µM and a TGI (HT29 colon) of 3.59 µM. The GI50 (SNB-19 CNS) was 4.94 µM, the TGI (SNB-19 CNS) was 20 µM and the GI50 (RPMI-8226 leukemia) was 1.98 µM. For the same compound, the TGI (RPMI-8226 leukemia) was 4.56 µM, the GI50 (SK-MEL-2 melanoma) was 1.91 µM and the TGI (SK-MEL-2 melanoma) was 4.26 µM. The GI50 (OVCAR-8 ovarian) was 2.21 µM, the TGI (OVCAR-8 ovarian) was 4.74 µM and the GI50 (NCI-H522 lung) was 1.78 µM. The TGI (NCI-H522 lung) was 3.82 µM.

Work on `O=C1C2=C(Nc3cc([N+](=O)[O-])ccc3N2)OC1c1c[nH]c2ccc(COc3ccccc3)cc12` (centres undefined) yielded a TGI (SF-268 CNS) of over 100 µM, a TGI (DU-145 prostate) of over 100 µM and a TGI (HT29 colon) of over 100 µM. For the same compound, the TGI (SNB-19 CNS) was over 100 µM, the TGI (RPMI-8226 leukemia) was over 100 µM and the TGI (SK-MEL-2 melanoma) was over 100 µM. For the same compound, the TGI (OVCAR-8 ovarian) was over 100 µM and the TGI (NCI-H522 lung) was over 100 µM.

Work on `Cn1c(N)c(N=Nc2ccc(S(N)(=O)=O)cc2)c(=O)n(C)c1=O` yielded a TGI (SF-268 CNS) of over 100 µM, a TGI (DU-145 prostate) of over 100 µM and a TGI (HT29 colon) of over 100 µM. For the same compound, the TGI (SNB-19 CNS) was over 100 µM, the TGI (RPMI-8226 leukemia) was over 100 µM and the TGI (SK-MEL-2 melanoma) was over 100 µM. The TGI (OVCAR-8 ovarian) was over 100 µM and the TGI (NCI-H522 lung) was over 100 µM.

Work on `O=C(/C=C/CN1CCCCC1)Nc1cc2c(Nc3ccc(F)c(Cl)c3F)ncnc2cc1OCCOC(F)F` yielded a GI50 (SF-268 CNS) of 1.14 µM, a TGI (SF-268 CNS) of 4.59 µM and a GI50 (DU-145 prostate) of 0.265 µM. The TGI (DU-145 prostate) was 6.24 µM, the GI50 (HT29 colon) was 0.919 µM and the TGI (HT29 colon) was 5.77 µM. The GI50 (SNB-19 CNS) was 1.94 µM, the TGI (SNB-19 CNS) was 13.5 µM and the GI50 (RPMI-8226 leukemia) was 1.01 µM. It also gave a TGI (RPMI-8226 leukemia) of 3.94 µM, a GI50 (SK-MEL-2 melanoma) of 1.85 µM and a TGI (SK-MEL-2 melanoma) of 4.7 µM. For the same compound, the GI50 (OVCAR-8 ovarian) was 0.805 µM, the TGI (OVCAR-8 ovarian) was 10.3 µM and the GI50 (NCI-H522 lung) was 0.0493 µM. For the same compound, the TGI (NCI-H522 lung) was 1.8 µM.

Compound `N#Cc1ccccc1C#C/C=C\C#Cc1cnccn1` has a GI50 (SF-268 CNS) of 48.9 µM, a TGI (SF-268 CNS) of over 100 µM and a GI50 (DU-145 prostate) of 25 µM. The TGI (DU-145 prostate) was over 100 µM, the GI50 (HT29 colon) was 8.72 µM and the TGI (HT29 colon) was over 100 µM. For the same compound, the GI50 (SNB-19 CNS) was 30.2 µM, the TGI (SNB-19 CNS) was over 89.4 µM and the GI50 (RPMI-8226 leukemia) was 2.71 µM. For the same compound, the TGI (RPMI-8226 leukemia) was over 21.5 µM, the GI50 (SK-MEL-2 melanoma) was 8.34 µM and the TGI (SK-MEL-2 melanoma) was over 100 µM. It also gave a GI50 (OVCAR-8 ovarian) of 33.9 µM, a TGI (OVCAR-8 ovarian) of 98.4 µM and a GI50 (NCI-H522 lung) of 18 µM. The TGI (NCI-H522 lung) was over 65.9 µM.

`COc1ccc(/C=C2\CN(Cc3cn(CCCNc4ccnc5cc(Cl)ccc45)nn3)C/C(=C\c3ccc(OC)cc3)C2=O)cc1` showed a GI50 (SF-268 CNS) of 3.45 µM, a TGI (SF-268 CNS) of 16.9 µM and a GI50 (DU-145 prostate) of 1.81 µM. For the same compound, the TGI (DU-145 prostate) was 3.3 µM, the GI50 (HT29 colon) was 1.82 µM and the TGI (HT29 colon) was 6.38 µM. The GI50 (SNB-19 CNS) was 15.7 µM, the TGI (SNB-19 CNS) was 36.1 µM and the GI50 (RPMI-8226 leukemia) was 2.22 µM. It also gave a TGI (RPMI-8226 leukemia) of 10.3 µM, a GI50 (SK-MEL-2 melanoma) of 9.85 µM and a TGI (SK-MEL-2 melanoma) of 39.6 µM. The GI50 (OVCAR-8 ovarian) was 2.06 µM, the TGI (OVCAR-8 ovarian) was 5.64 µM and the GI50 (NCI-H522 lung) was 10.3 µM. It also gave a TGI (NCI-H522 lung) of 21.9 µM.

For `CCOC(=O)c1ccccc1NC(c1ccccc1)c1ccc2cccnc2c1O` (centres undefined), the GI50 (SF-268 CNS) was 3.14 µM, the TGI (SF-268 CNS) was 29 µM and the GI50 (DU-145 prostate) was 5.94 µM. The TGI (DU-145 prostate) was over 100 µM, the GI50 (HT29 colon) was 4.58 µM and the TGI (HT29 colon) was over 100 µM. For the same compound, the GI50 (SNB-19 CNS) was 2.83 µM, the TGI (SNB-19 CNS) was over 100 µM and the GI50 (RPMI-8226 leukemia) was 3.06 µM. The TGI (RPMI-8226 leukemia) was over 100 µM, the GI50 (SK-MEL-2 melanoma) was 3.74 µM and the TGI (SK-MEL-2 melanoma) was 45.1 µM. It also gave a GI50 (OVCAR-8 ovarian) of 3.31 µM, a TGI (OVCAR-8 ovarian) of 52.2 µM and a GI50 (NCI-H522 lung) of 3.36 µM. For the same compound, the TGI (NCI-H522 lung) was 11.6 µM.
